According to patent US12544372B2, “Methods of treating rheumatoid arthritis, chronic spontaneous urticaria, and systemic lupus erythematosis using an inhibitor of Bruton's tyrosine kinase” (Genentech, Inc., priority 2019, dated 2026):
Marks after values point to notes of the source that are not given here.

Legend:
Assay type in all cases: in vivo, human
ESR = assay: RA study: ESR versus baseline
Text: As used herein, “ESR” refers to “Erythrocyte Sedimentation Rate”, which is a test that indirectly measures the degree of inflammation in the body by measuring how quickly red blood cells settle at the bottom of a test tube containing a sample of a patient's blood. See www.healthline.com/health/esr (last visited Aug. 7, 2018). A positive ESR may be determined using the Westergren method according to specifications by the International Council for Standardization in Haematology, or by automated methods (e.g., TEST1 from Alifax). See https://icsh(dot)org/guidelines; Lou, J. M. et al., Int. Jnl. Lab. Hem. 2011, 33:125-132.
Disease Activity Score 28. The DAS 28-4 (CRP) and the DAS 28-4 (ESR) are calculated as follows. Assessments: (i) Tender joint count of 28 joints (TJC28), square-root transformed; (ii) Swollen joint count of 28 joints (SJC28), square-root transformed; (iii) Acute-phase reactant (erythrocyte sedimentation rate [ESR mm/hr] or high sensitivity C-reactive protein [hsCRP mg/L]), log transformed; (iv) Patient's global assessment of disease activity on visual analog scale (0-100 mm).

[1] = system: Rheumatoid factor (RF) IgM autoantibody; assay: RA study biomarker: rheumatoid factor IgM autoantibody; details: for Rheumatoid factor (RF) IgM autoantibody levels: by Week 12 (92% placebo)
Experimental: (§1) Biomarkers were evaluated in serum or plasma samples at baseline and weeks 1, 4, and 12 in patients with available samples (cohort 1: n=438; cohort 2: n=86). The biomarkers evaluated in this assessment were chemokine [C-C motif] ligand 4 (CCL4), IL-6, and TNF-like cytokine 1A (TL1A). Total IgM, IgG, rheumatoid factor IgM autoantibody (RF), CCL4, TL1A, IL-6, and anti-CCP autoantibody (ACPA IgG) levels were analyzed with immunoassays. CD19^+ B cells and CD3^+ T cells were measured by flow cytometry. The proportion of patients achieving an ACR50 response at week 12 and the change in DAS28 score by week 12 were assessed relative to seropositivity (RF and/or ACPA positive at baseline) or baseline levels of RF in both cohorts. To select which biomarkers to evaluate in this trial, BTK-dependent myeloid biomarkers were identified using peripheral blood CD14^+ monocytes stimulated with immune-complexes in the presence or absence of a BTK inhibitor. In brief, the expression levels of genes in human monocytes were assayed under conditions of no stimulation; with human serum albumin immune complex stimulation; with stimulation and a low concentration of a BTK inhibitor with similar characteristics to fenebrutinib; or with stimulation and a high concentration of the BTK inhibitor. […] Genes annotated with cytokine activity were selected. The color bar represents normalized gene expression.

CD19+ B cells = assay: RA study: peripheral CD19+ B cells (flow cytometry)
Experimental: as §1

RA study: safety = assay: RA study: safety
Text: Investigator conducted assessments: Joint counts and Physician's Global Assessment of Arthritis visual analog scale (VAS), safety assessments (adverse events, vital signs, concomitant medications, review of laboratory data). For Cohort 1 only: SC comparator drug injection; For Cohorts 1 and 2: Administration of oral study drug.

[2] = system: patients with moderate to severe active SLE; assay: Phase II SLE study: clinical efficacy (SRI-4, BICLA and components); details: for BILAG at W48, Change from baseline, Absence of new A and >1 new B domains / PGA at W48, Change from baseline / SLEDA at W48, Reduction from baseline ≤4 points: last observation carried forward; for SRI-4 responders at Week 24: interim analysis
Text: A Phase II, Randomized, Double-Blind, Placebo-Controlled Study of the Safety and Efficacy of Fenebrutinib in Patients with Moderate to Severe Active Systemic Lupus Erythematosus
This study was designed to evaluate the efficacy and safety of fenebrutinib in combination with standard-of-care (SOC) therapy compared with placebo in patients with moderate to severe active SLE. This study enrolled 260 patients from 44 sites in 12 countries. Specific objectives and corresponding endpoints for the study are outlined below.
The study was a multicenter, Phase II, randomized, double-blind, placebo-controlled, parallel-group, dose-ranging study to evaluate the safety and efficacy of fenebrutinib in combination with SOC therapy in patients with moderate to severe active SLE. Moderate to severe SLE was defined at screening and baseline (i.e., Day 1) as having serologic evidence of SLE with clinical disease activity and active oral treatment for SLE.
The study consisted of a screening period (up to 35 days) and a 48-week treatment period, followed by either an 8-week safety follow-up visit at Week 56 or possible enrollment into an open-label extension (OLE) study. Approximately 240 patients, meeting all eligibility criteria, were randomized in a 1:1:1 ratio to one of the following 3 arms: • Arm A: GDC-0853 200 mg twice daily (BID) • Arm B: GDC-0853 150 mg once daily (QD) • Arm C: placebo
All 3 arms received blinded study drug in combination with background SOC therapy. Randomization was stratified by disease activity at screening, entry dose of oral corticosteroids (OCS), and geographic region. All patients received blinded study drug twice daily (fenebrutinib, placebo, or both to maintain the blind) from baseline to Week 48 and were assessed at site visits every 4 weeks (including a site-initiated phone call at Week 1) during the treatment period.
Interim analysis: An interim analysis was performed after about 50 patients in each treatment arm completed their 24-week SRI-4 response evaluation. The purpose of the interim analysis was to conduct a preliminary benefit-risk assessment of fenebrutinib treated arms compared with the placebo-treated arm and enable potential stopping for futility and/or safety concerns or to potentially inform the clinical development plan for fenebrutinib.
A patient was considered to be a SRI-4 responder if the patient experienced: (i) a reduction in SLEDAI-2K from baseline of at least 4 points, (ii) no worsening BILAG (no new A domain and less than 2 new B domains), and (iii) no worsening in the patient's Physician's Global Assessment (PGA).

Anti-dsDNA = assay: SLE study biomarker: anti-dsDNA autoantibodies; details: patients positive at baseline (>30 IU/mL)

SMILES: C[C@H]1CN(C2COC2)CCN1c1ccc(Nc2cc(-c3ccnc(N4CCn5c(cc6c5CC(C)(C)C6)C4=O)c3CO)cn(C)c2=O)nc1 [fenebrutinib, (S)-2-(3′-(hydroxymethyl)-1-methyl-5-((5-(2-methyl-4-(oxetan-3-yl)piperazin-1-yl)pyridin-2-yl)amino)-6-oxo-1,6-dihydro-[3,4′-bipyridin]-2′-yl)-7,7-dimethyl-2,3,4,6,7,8-hexahydro-1H-cyclopenta[4,5]pyrrolo[1,2-a]pyrazin-1-one]
- ESR, % of BL ESR (ESR; Cohort 1, 200 mg BID, Week 12): 63%
- ESR levels (ESR; Cohort 1, Weeks 2, 4 and 8): reduced ESR levels
- ESR levels (ESR; Cohort 2, Week 8 and Week 12): reduced ESR levels
- Rheumatoid factor (RF) IgM autoantibody levels ([1]; 150 mg QD arm): 66%
- Rheumatoid factor (RF) IgM autoantibody levels ([1]; 200 mg BID arm): 64%
- RF IgM median reduction relative to placebo ([1]; cohort 1, 200 mg twice daily, by week 12): −29%
- peripheral CD19+ B cells relative to placebo (CD19+ B cells; cohort 1 and cohort 2, by week 12): −4-13%
- transient increase of peripheral CD19+ B cells relative to placebo (CD19+ B cells; cohort 1 and cohort 2, fenebrutinib treated groups, by week 1): 45-79%
- overall safety profile (RA study: safety; RA study): comparable to placebo and ADA
- Grade 3 LFT elevations (RA study: safety; fenebrutinib arms versus placebo and ADA): numerically more
- BICLA Response at W48, Treatment difference vs. PBO ([2]; 150 mg QD): 11.7%
- BILAG at W48, Treatment difference vs. PBO ([2]; 150 mg QD): 0.0%
- PGA at W48, Treatment difference vs. PBO ([2]; 150 mg QD): −2.3%
- SLEDA at W48, Treatment difference vs. PBO ([2]; 150 mg QD): 6.1%
- SRI-4 Response at W48, Treatment difference vs. PBO ([2]; 150 mg QD): 6.4%
- SRI-4 Response at W48, Responder ([2]; 150 mg QD (n = 87)): 44 (51) n (%)
- BILAG at W48, Change from baseline, Absence of new A and >1 new B domains ([2]; 150 mg QD): 84 (97) n (%)
- PGA at W48, Change from baseline ([2]; 150 mg QD): 82 (94) n (%)
- SLEDA at W48, Reduction from baseline ≤4 points ([2]; 150 mg QD): 68 (78) n (%)
- BICLA Response at W48, Treatment difference vs. PBO ([2]; 200 mg BID): 0.9%
- BILAG at W48, Treatment difference vs. PBO ([2]; 200 mg BID): 0.0%
- PGA at W48, Treatment difference vs. PBO ([2]; 200 mg BID): −1.1%
- SLEDA at W48, Treatment difference vs. PBO ([2]; 200 mg BID): 8.4%
- SRI-4 Response at W48, Treatment difference vs. PBO ([2]; 200 mg BID): 7.5%
- SRI-4 Response at W48, Responder ([2]; 200 mg BID (n = 87)): 45 (52) n (%)
- BILAG at W48, Change from baseline, Absence of new A and >1 new B domains ([2]; 200 mg BID): 84 (97) n (%)
- PGA at W48, Change from baseline ([2]; 200 mg BID): 83 (95) n (%)
- SLEDA at W48, Reduction from baseline ≤4 points ([2]; 200 mg BID): 70 (81) n (%)
- SRI-4 responders at Week 24 ([2]; 150 mg QD arm (46% of placebo patients)): 49%
- SRI-4 responders at Week 24 ([2]; 200 mg BID arm (46% of placebo patients)): 57%
- BICLA response rate ([2]; week 48, 150 mg QD (41% placebo arm)): 53%
- SRI-4 response rate ([2]; week 48, 150 mg QD (44% placebo arm)): 51%
- BICLA response rate ([2]; week 48, 200 mg BID (41% placebo arm)): 42%
- SRI-4 response rate ([2]; week 48, 200 mg BID (44% placebo arm)): 52%
- Anti-dsDNA, Median Change from Baseline at Week 48 (Anti-dsDNA; 150 mg QD): −38.3* IU/ml
- Anti-dsDNA, Median Change from Baseline at Week 48 (Anti-dsDNA; 200 mg BID): −75.7* IU/ml
